Results on 32 compounds are retold here after the Deep4Chem optical property database.

The nature of the first series: solvent given as SMILES. The settings on record: in CCOC(C)=O.
On to `CC1=[N+]2C(=C(c3ccc(N(c4ccccc4)c4ccccc4)cc3)c3ccc(C)n3[B-]2(F)F)C=C1c1cc2n(c1)[B-](F)(F)[N+]1=CC=CC1=C2c1c(C)cc(C)cc1C`, for which the emission maximum is listed as 680 nm.

On to `COc1ccc(/C=C/c2ccccc2)cc1`, for which the emission maximum is recorded as 366 nm.

Staying with this series, now noted: in CCOCC.
The compound `COc1ccc(/C=C/c2ccccc2)cc1` came in with an emission maximum of 366 nm.

The compound `Nc1ccc(-c2ccc3c(c2)C(=O)c2ccccc2C3=O)cc1` showed an emission maximum of 643 nm.

Staying with this series, now noted: in CN(C)C=O.
For `Nc1ccc(-c2ccc(N)cc2)cc1`, the emission maximum came to 403 nm.

Regarding `FC(F)(F)c1ccc(/C=C/c2ccc(-c3nnc(-c4ccc(-c5cc6ccccc6s5)cc4)o3)cc2)cc1`, the emission maximum is on record as 416 nm.

The same series, now with this note: in CO.
Consider `CC1=CC(/C=C/c2ccc(OCCCN=[N+]=[N-])cc2)=[N+]2C1=C(c1ccc(N3CCCCC3)cc1)c1c(C)cc(C)n1[B-]2(F)F`, for which the emission maximum turned out to be 586 nm.

On to `Nc1ccc(-c2ccc(N)cc2)cc1`, for which the emission maximum came out at 397 nm.

In the case of `CCC1=C(C)C(=O)n2c1cc1c(C)c(CCC(=O)O)c(C)n1c2=O`, the emission maximum worked out at 535 nm.

Regarding `FC(F)(F)c1ccc(/C=C/c2ccc(-c3nnc(-c4ccc(-c5cc6ccccc6s5)cc4)o3)cc2)cc1`, the emission maximum was 389 nm.

For the compound `CCN(CC)c1ccc(/C=C/C2=[O+][B-](F)(F)Oc3c2c(=O)oc2cc(N(CC)CC)ccc32)cc1`, the emission maximum is on record as 637 nm.

In the case of `CN1/C(=C/C=C(/C=C/c2sc3ccccc3[n+]2C)c2cc(F)cc(F)c2)Sc2ccccc21`, the emission maximum is listed as 668 nm.

Compound `CCOC(=O)CCCCCn1c2ccc(Cl)cc2c(=O)c2cc3c(cc21)c(=O)c1cc(Cl)ccc1n3CCCCCC(=O)OCC` registered an emission maximum of 556 nm.

Consider `CCOC(=O)C1=CN(c2ccccc2)C=C(C(=O)OCC)C1c1ccccc1`, for which the emission maximum is given as 426 nm.

Regarding `N#Cc1cc2ccccc2[nH]1`, the emission maximum is 335 nm.

Take `Cc1ccc(-c2cc(-c3ccccc3Cl)c3c(N)nc(N4CCCC4)c(C#N)c3n2)cc1`: the emission maximum is 525 nm.

The same series, now with this note: in CS(C)=O.
The compound `Nc1ccc(-c2ccc(N)cc2)cc1` came in with an emission maximum of 404 nm.

Regarding `CCC1=C(C)C(=O)n2c1cc1c(C)c(CCC(=O)O)c(C)n1c2=O`, the emission maximum was determined as 510 nm.

`FC(F)(F)c1ccc(/C=C/c2ccc(-c3nnc(-c4ccc(-c5cc6ccccc6s5)cc4)o3)cc2)cc1` yielded an emission maximum of 397 nm.

`CCN(CC)c1ccc(/C=C/C2=[O+][B-](F)(F)Oc3c2c(=O)oc2cc(N(CC)CC)ccc32)cc1` returned an emission maximum of 659 nm.

`CN1/C(=C/C=C(/C=C/c2sc3ccccc3[n+]2C)c2cc(F)cc(F)c2)Sc2ccccc21` showed an emission maximum of 675 nm.

`CCCCCCCCCCCCOc1cc2cc(N(C)C)ccc2cc1C=C(C#N)C#N` showed an emission maximum of 631 nm.

`N#Cc1cc2ccccc2[nH]1` returned an emission maximum of 335 nm.

In the case of `O=C1CCCC2=C1C(c1ccc([N+](=O)[O-])cc1)c1c(c3ccccc3oc1=O)N2` (stereo not drawn), the emission maximum was determined as 441 nm.

Still in this series, the particulars now being: in Cc1ccccc1.
`Nc1ccc(-c2ccc(N)cc2)cc1` registered an emission maximum of 395 nm.

`CCN(CC)c1ccc(/C=C/C2=[O+][B-](F)(F)Oc3c2c(=O)oc2cc(N(CC)CC)ccc32)cc1` came in with an emission maximum of 597 nm.

Take `Brc1ccc(-c2nc(-c3ccc(C#Cc4ccc(-n5c6ccccc6c6ccccc65)cc4)cc3)nc(-c3ccc(C#Cc4ccc(-n5c6ccccc6c6ccccc65)cc4)cc3)n2)cc1`: the emission maximum amounted to 432 nm.

Consider `CC1(C)c2ccccc2N(c2cc[n+]3c(c2)-c2ccccc2O[B-]3(F)F)c2ccccc21`, for which the emission maximum is reported as 540 nm.

`Cc1cc(C)c(C2=C3C=C(c4ccc(C(C)(C)C)cc4)C(c4ccc(C(C)(C)C)cc4)=[N+]3[B-](F)(F)n3c2cc(-c2ccc(C(C)(C)C)cc2)c3-c2ccc(C(C)(C)C)cc2)c(C)c1` returned an emission maximum of 645 nm.

In turn, `Nc1ccc(-c2ccc3c(c2)C(=O)c2ccccc2C3=O)cc1` displayed an emission maximum of 599 nm.

The same series, now with this note: in ClC(Cl)(Cl)Cl.
Compound `Nc1ccc(-c2ccc3c(c2)C(=O)c2ccccc2C3=O)cc1` returned an emission maximum of 562 nm.

The same series, now with this note: in ClC(Cl)Cl.
The compound `CCCCc1cc(-c2cccc(COC)c2)oc1-c1cccc(-c2cc(CCCC)c(-c3cccc(-c4oc(-c5cccc(-c6oc(-c7cccc(COC)c7)cc6CCCC)c5)cc4CCCC)c3)o2)c1` displayed an emission maximum of 373 nm.

Turning to `Nc1ccc(-c2ccc(N)cc2)cc1`, the emission maximum is listed as 384 nm.

For `CCC1=C(C)C(=O)n2c1cc1c(C)c(CCC(=O)O)c(C)n1c2=O`, the emission maximum was found to be 490 nm.

`Cc1c2c(c(C)c3ccccc13)-c1cc3nc4ccccc4nc3cc1-2`: the emission maximum stood at 454 nm.

The compound `CCN(CC)c1ccc(/C=C/C2=[O+][B-](F)(F)Oc3c2c(=O)oc2cc(N(CC)CC)ccc32)cc1` came in with an emission maximum of 622 nm.

On to `COc1cc2cc(OC)c(C#Cc3ccc([N+](=O)[O-])cc3)cc2cc1C#Cc1ccc([N+](=O)[O-])cc1`, for which the emission maximum is 577 nm.

`Cc1ccc(-c2cc(-c3ccccc3Cl)c3c(N)nc(N4CCCC4)c(C#N)c3n2)cc1`: the emission maximum came out at 508 nm.

Still in this series, the particulars now being: in ClCCl.
With `Nc1ccc(-c2ccc(N)cc2)cc1`, the emission maximum is on record as 384 nm.

Take `COc1c2ccccc2c(OC)c2c(C#CC(C)(C)C)c3cc4sccc4cc3c(C#CC(C)(C)C)c12`: the emission maximum was 634 nm.

In the case of `CCN(CC)c1ccc(/C=C/C2=[O+][B-](F)(F)Oc3c2c(=O)oc2cc(N(CC)CC)ccc32)cc1`, the emission maximum is reported as 634 nm.

`CCCCCCCCCCCCOc1cc2cc(N(C)C)ccc2cc1C=C(C#N)C#N` yielded an emission maximum of 578 nm.

`COC(=O)CCC1=CC(C#Cc2cccs2)=[N+]2C1=Cc1c(CCC(=O)OC)cc(C#Cc3cccs3)n1[B-]2(F)F`: the emission maximum is 681 nm.

Turning to `Cn1c(=O)cc(C(=O)c2ccccc2)c2sc(-c3ccc(C(F)(F)F)cc3)cc21`, the emission maximum came out at 511 nm.

In turn, `Brc1ccc(-c2nc(-c3ccc(C#Cc4ccc(-n5c6ccccc6c6ccccc65)cc4)cc3)nc(-c3ccc(C#Cc4ccc(-n5c6ccccc6c6ccccc65)cc4)cc3)n2)cc1` returned an emission maximum of 498 nm.

`Cc1cc(C)c(C2=C3C=C(c4ccc(C(C)(C)C)cc4)C(c4ccc(C(C)(C)C)cc4)=[N+]3[B-](F)(F)n3c2cc(-c2ccc(C(C)(C)C)cc2)c3-c2ccc(C(C)(C)C)cc2)c(C)c1` gave an emission maximum of 644 nm.

Compound `C(#Cc1ccc2c(c1)c1cc(C#Cc3ccccc3)ccc1n2-c1cc2ccccc2c2ccccc12)c1ccccc1` had an emission maximum of 392 nm.

For `Nc1ccc(-c2ccc3c(c2)C(=O)c2ccccc2C3=O)cc1`, the emission maximum is recorded as 695 nm.

The compound `c1ccc(N(c2ccccc2)c2ccc(-c3ccc(-c4nc(-c5ccccn5)n(-c5ccccc5)n4)cc3)cc2)cc1` gave an emission maximum of 435 nm.

In turn, `CC(C)(C)c1ccc2c(c1)c1cc(C(C)(C)C)ccc1n2-c1cccs1` gave an emission maximum of 368 nm.

`CCCCOc1c(-c2ccc(C=O)cc2)cc2cc(-c3ccc(C=O)cc3)c(OCCCC)c3c4c(OCCCC)c(-c5ccc(C=O)cc5)cc5cc(-c6ccc(C=O)cc6)c(OCCCC)c(c1c23)c54` displayed an emission maximum of 500 nm.

For the compound `CCCn1c(=O)c(/C=C/c2nc3ccc(C)cc3n(CCC)c2=O)nc2ccc(C)cc21`, the emission maximum was determined as 490 nm.

As to `COc1cc2cc(OC)c(C#Cc3ccc([N+](=O)[O-])cc3)cc2cc1C#Cc1ccc([N+](=O)[O-])cc1`, the emission maximum stood at 593 nm.

`FC(F)(F)c1ccc(B2c3ccccc3Nc3ccccc32)c(C(F)(F)F)c1` had an emission maximum of 407 nm.

The compound `Cc1ccc(-c2cc(-c3ccccc3Cl)c3c(N)nc(N4CCCC4)c(C#N)c3n2)cc1` gave an emission maximum of 514 nm.

Staying with this series, now noted: in O.
For `Nc1ccc(-c2ccc(N)cc2)cc1`, the emission maximum is 401 nm.

For `CN1/C(=C/C=C(/C=C/c2sc3ccccc3[n+]2C)c2cc(F)cc(F)c2)Sc2ccccc21`, the emission maximum is 671 nm.

In turn, `CCCCCCCCCCCCOc1cc2cc(N(C)C)ccc2cc1C=C(C#N)C#N` displayed an emission maximum of 674 nm.

Consider `N#Cc1cc2ccccc2[nH]1`, for which the emission maximum turned out to be 350 nm.

The series is the same for the next values; noted with them: in O=P(c1ccccc1)(c1ccccc1)c1ccccc1Oc1ccccc1P(=O)(c1ccccc1)c1ccccc1.
Compound `CC1(C)c2ccccc2N(c2cc[n+]3c(c2)-c2ccccc2O[B-]3(F)F)c2ccccc21` gave an emission maximum of 542 nm.

Still in this series, the particulars now being: in OCC(F)(F)F.
Consider `N#Cc1cc2ccccc2[nH]1`, for which the emission maximum stood at 339 nm.

Still in this series, the particulars now being: in OCC(O)CO.
As to `CCN(CC)c1ccc(/C=C/C2=[O+][B-](F)(F)Oc3c2c(=O)oc2cc(N(CC)CC)ccc32)cc1`, the emission maximum stood at 654 nm.

The same series, now with this note: in OCCO.
In turn, `CCN(CC)c1ccc(/C=C/C2=[O+][B-](F)(F)Oc3c2c(=O)oc2cc(N(CC)CC)ccc32)cc1` came in with an emission maximum of 653 nm.

Still in this series, the particulars now being: in OCCOCCO.
As for `N#Cc1ccc(-c2ccc(C3=CCC(c4ccccc4)CC3)s2)s1` (stereo not drawn), the emission maximum is given as 452 nm.

Staying with this series, now noted: in c1ccccc1.
As to `CCC1=C(C)C(=O)n2c1cc1c(C)c(CCC(=O)O)c(C)n1c2=O`, the emission maximum is on record as 480 nm.

As for `Nc1cccc2c1-c1ccccc1C2=O`, the emission maximum came out at 544 nm.

For the compound `Cc1ccc(-c2cc(-c3ccccc3Cl)c3c(N)nc(N4CCCC4)c(C#N)c3n2)cc1`, the emission maximum was determined as 512 nm.

Still in this series, the particulars now being: in c1ccncc1.
`N#Cc1ccc(-c2ccc(C3=CCC(c4ccccc4)CC3)s2)s1` (stereo not drawn) showed an emission maximum of 452 nm.
